{"source": "Sander's compilation of Henry's law constants (doi:10.1093/jnci/56.6.1125)"}
{"assay": "Henry solubility constant Hcp at 310 K (mol/(m3 Pa))", "conditions": "reference: Mirvish et al. (1976)"}
{"compound": "CC1CN(N=O)CC(C)N1N=O", "note": "(stereo not given) [2,6-dimethyldinitrosopiperazine]", "Henry solubility constant Hcp at 310 K": "> 190"}
{"compound": "CC1CN(N=O)CC(C)O1", "note": "(stereo not given) [2,6-dimethylnitrosomorpholine]", "Henry solubility constant Hcp at 310 K": 35}
{"compound": "O=NN1CCOCC1", "note": "[4-nitrosomorpholine]", "Henry solubility constant Hcp at 310 K": 390}
{"compound": "CC(C)N(N=O)C(C)C", "note": "[N-(1-methylethyl)-N-nitroso-2-propanamine]", "Henry solubility constant Hcp at 310 K": 1.2}
{"compound": "CN(Cc1ccccc1)N=O", "note": "[N-methyl-N-nitrosobenzenemethanamine]", "Henry solubility constant Hcp at 310 K": 0.79}
{"compound": "CCOC(=O)N(C)N=O", "note": "[N-nitroso-N-methylurethane]", "Henry solubility constant Hcp at 310 K": 0.39}
{"compound": "CCCCN(CCCC)N=O", "note": "[N-nitrosodi-N-butylamine]", "Henry solubility constant Hcp at 310 K": 0.72}
{"compound": "CCN(CC)N=O", "note": "[N-nitrosodiethylamine]", "Henry solubility constant Hcp at 310 K": 1.4}
{"compound": "CN(C)N=O", "note": "[N-nitrosodimethylamine]", "Henry solubility constant Hcp at 310 K": 5.2}
{"compound": "CCCN(CCC)N=O", "note": "[N-nitrosodipropylamine]", "Henry solubility constant Hcp at 310 K": 1.8}
{"compound": "O=NN1CCCCC1", "note": "[N-nitrosopiperidine]", "Henry solubility constant Hcp at 310 K": 11}
{"compound": "O=NN1CCN(N=O)CC1", "note": "[dinitrosopiperazine]", "Henry solubility constant Hcp at 310 K": "> 190"}
{"compound": "CCCCN(CC)N=O", "note": "[ethylbutylnitrosamine]", "Henry solubility constant Hcp at 310 K": 0.99}
{"compound": "CCN(C#N)N=O", "note": "[ethylnitrosocyanamide]", "Henry solubility constant Hcp at 310 K": 0.26}
{"compound": "CCCCN(C)N=O", "note": "[methylbutylnitrosamine]", "Henry solubility constant Hcp at 310 K": 1.7}
{"compound": "CC(=O)N(C)N=O", "note": "[methylnitrosoacetamide]", "Henry solubility constant Hcp at 310 K": 0.086}
{"compound": "CN(N=O)C(N)=O", "note": "[methylnitrosourea]", "Henry solubility constant Hcp at 310 K": "> 190"}
{"compound": "CCCCCN(C)N=O", "note": "[methylpentylnitrosamine]", "Henry solubility constant Hcp at 310 K": 2}
{"compound": "O=NN1CCC1", "note": "[nitrosoazetidine]", "Henry solubility constant Hcp at 310 K": "> 190"}
{"compound": "O=NN1CCCCCC1", "note": "[nitrosohexamethyleneimine]", "Henry solubility constant Hcp at 310 K": 43}
